GI50 and TGI data for 17 compounds are collected here from PubChem BioAssay (NCI).

Test systems include ACHN renal; HCC-2998 colon; HCT-116 colon; PC-3 prostate; SF-295 CNS; T-47D breast; UACC-62 melanoma; UO-31 renal; HL-60(TB) leukemia; IGROV1 ovarian.
Holding throughout (assay): DTP human tumour cell line panel, 48 h

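In this assay, cells in 96-well plates receive the compound at five concentrations for 48 hours. Endpoints are linearly interpolated between the surrounding concentrations. At the GI50, growth is halved. TGI: concentration producing complete growth inhibition.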 Bounds are passed on as bounds.

Regarding `COc1cc2c3c(n(CCCN=[N+]=[N-])c(=O)c2cc1OC)-c1ccccc1C3=O`, the GI50 in the experiment on ACHN renal was 1.21 µM; in the experiment with HCC-2998 colon, 94.2 µM; with HCT-116 colon, 1.81 µM; with PC-3 prostate it was > 100 µM; with SF-295 CNS, 2.87 µM; in the experiment with T-47D breast it was > 100 µM. For the same compound, the GI50 is 2.63 µM in the experiment on UACC-62 melanoma and > 100 µM in the experiment with UO-31 renal. The TGI in the experiment with ACHN renal was 4.65 µM; in the experiment with HCC-2998 colon it was > 100 µM; in the experiment on HCT-116 colon, 17.8 µM; in the experiment on PC-3 prostate it was > 100 µM; in the experiment with SF-295 CNS it was 9.86 µM; in the experiment on T-47D breast it was > 100 µM. Also, the figures for the TGI with UACC-62 melanoma and with UO-31 renal were 27.6 µM and > 100 µM, respectively.
As for `CCOC(=O)NC(=O)c1cn(CCSCCOC(=O)NCCCCCCNC(=O)OCCSCCn2cc(C(=O)NC(=O)OCC)c(=O)n(C)c2=O)c(=O)n(C)c1=O`, the TGI in the experiment with ACHN renal is > 100 µM; with HCC-2998 colon, > 100 µM; in the experiment on HCT-116 colon, 52.6 µM; in the experiment with HL-60(TB) leukemia, 43 µM; with SF-295 CNS, > 100 µM; with UACC-62 melanoma, > 100 µM. For the same compound, the TGI in the experiment on UO-31 renal is > 100 µM.
With `COc1ccc2cc3c4cc(OC)c(OC)cc4ccn3c2c1`, the TGI in the experiment with ACHN renal, in the experiment on HCC-2998 colon, in the experiment on HL-60(TB) leukemia, with IGROV1 ovarian, in the experiment on SF-295 CNS and in the experiment with UACC-62 melanoma was > 100 µM each time. Moreover, the TGI with UO-31 renal is > 100 µM.
For `O=C(O)c1cnc2c(ccc3[nH]cccc32)c1=O`, the TGI with ACHN renal, in the experiment on HCC-2998 colon, in the experiment with HCT-116 colon, with HL-60(TB) leukemia, in the experiment on IGROV1 ovarian and in the experiment with UACC-62 melanoma was > 100 µM in each case. In addition, in the experiment with UO-31 renal, the TGI was > 100 µM.
Turning to `CC(=O)N1c2ccccc2N(C(C)=O)C1c1ccc(C2N(C(C)=O)c3ccccc3N2C(C)=O)[nH]1`, the TGI in the experiment with HCC-2998 colon, in the experiment on HCT-116 colon, in the experiment with HL-60(TB) leukemia, in the experiment with IGROV1 ovarian, in the experiment with SF-295 CNS and with UACC-62 melanoma was > 100 µM each time. The TGI in the experiment on UO-31 renal was > 100 µM.
`O=C1CCC2(c3ccc(Cl)cc3)Nc3ccccc3N12` (stereo not given): the TGI with ACHN renal, in the experiment with HCC-2998 colon, in the experiment on HCT-116 colon, with HL-60(TB) leukemia, with IGROV1 ovarian and in the experiment on SF-295 CNS was > 100 µM in each case. In the experiment with UO-31 renal, the TGI was > 100 µM.
On to `COc1ccc(C2(Cl)C(Cl)(C(F)(F)F)C2(Cl)C(F)(F)F)cc1` (stereo not given), for which the total growth inhibition concentration (TGI) with ACHN renal was determined as 30.4 µM; in the experiment on HCC-2998 colon it was 29.8 µM; with HCT-116 colon it was 23.9 µM; in the experiment with HL-60(TB) leukemia, 54.9 µM; in the experiment with IGROV1 ovarian, 30.8 µM; with SF-295 CNS, 29 µM. Further, the figures for the TGI with UACC-62 melanoma and in the experiment with UO-31 renal were 26.4 µM and 29.5 µM, respectively.
Take `N#CC(Sc1ccccc1)C(N)=O` (stereo not given): the TGI with HCC-2998 colon, with HCT-116 colon, in the experiment on HL-60(TB) leukemia, with IGROV1 ovarian, in the experiment on SF-295 CNS and with UACC-62 melanoma was > 100 µM throughout. The TGI with UO-31 renal was > 100 µM.
As for `C=CCCn1nc(-c2ccccc2)oc1=O`, the TGI with ACHN renal, in the experiment on HCC-2998 colon, with HCT-116 colon, in the experiment with HL-60(TB) leukemia, in the experiment on IGROV1 ovarian and with SF-295 CNS was > 100 µM each time. The TGI in the experiment on UACC-62 melanoma and with UO-31 renal was > 100 µM throughout.
Turning to `COc1ccc2c(n1)Sc1nc3ccccc3nc1N2`, the TGI in the experiment with ACHN renal, in the experiment with HCT-116 colon, in the experiment on IGROV1 ovarian, in the experiment with PC-3 prostate, with SF-295 CNS and with T-47D breast was > 100 µM in each case. Also, the TGI with UACC-62 melanoma stood at 43.4 µM; in the experiment with UO-31 renal, 89.1 µM.
For `CC(C)N(C(=O)C12C3C4C5C3C1(C(=O)O)C5C42)C(C)C` (stereo not given), the TGI in the experiment on ACHN renal, in the experiment with HCC-2998 colon, in the experiment with HCT-116 colon, with HL-60(TB) leukemia, with IGROV1 ovarian and in the experiment on SF-295 CNS was > 100 µM in each case. Besides, the TGI with UACC-62 melanoma and in the experiment on UO-31 renal was > 100 µM each time.
Turning to `C=CC12CCCCC1CC(C(=O)OC)=C(O)C2` (stereo not given), the TGI in the experiment on ACHN renal, in the experiment with HCC-2998 colon, with HCT-116 colon, in the experiment on HL-60(TB) leukemia, with IGROV1 ovarian and in the experiment with SF-295 CNS was > 100 µM in each case. The TGI in the experiment on UACC-62 melanoma and in the experiment with UO-31 renal was > 100 µM in each case.
Turning to `O=CCCn1[nH]c(=O)ccc1=O`, the TGI with ACHN renal, with HCC-2998 colon, in the experiment with HCT-116 colon, in the experiment with HL-60(TB) leukemia, in the experiment with IGROV1 ovarian and with SF-295 CNS was > 100 µM throughout. The TGI with UACC-62 melanoma and with UO-31 renal was > 100 µM each time.
`NC1=NN(c2ccccc2)C(=O)C1C(=O)C(=O)Nc1ccccc1` (stereo not given): the total growth inhibition concentration (TGI) in the experiment with ACHN renal, in the experiment with HCC-2998 colon, in the experiment with HCT-116 colon, with HL-60(TB) leukemia, with IGROV1 ovarian and in the experiment with SF-295 CNS was > 100 µM each time. In addition, the TGI in the experiment on UACC-62 melanoma and in the experiment on UO-31 renal was > 100 µM each time.
Consider `Cn1cnc([N+](=O)[O-])c1Sc1n[nH]c(-c2ccc(Cl)cc2)n1`, for which the TGI with ACHN renal was found to be 41.7 µM; in the experiment with HCC-2998 colon, 40.6 µM; in the experiment with HCT-116 colon it was 58.1 µM; in the experiment with IGROV1 ovarian, 62.3 µM; with SF-295 CNS, 58.8 µM; with UACC-62 melanoma, 28.4 µM. The compound further gave a TGI in the experiment on UO-31 renal of 60.5 µM.
As for `CCCCCCCCCCCCCCCCc1c(C(=O)OC)nc(NC#N)[nH]c1=O`, the TGI with ACHN renal, with HCC-2998 colon, with HCT-116 colon, in the experiment on HL-60(TB) leukemia, with SF-295 CNS and with UO-31 renal was > 25 µM throughout.
Regarding `CN(C)CC1(C)CC/C(=C\c2ccc(Cl)cc2)C1=O` (stereo not given), the TGI in the experiment on ACHN renal, in the experiment with HCC-2998 colon, in the experiment on HCT-116 colon, in the experiment on HL-60(TB) leukemia, in the experiment on IGROV1 ovarian and in the experiment with SF-295 CNS was > 100 µM throughout. Besides, the TGI with UACC-62 melanoma is 64.9 µM; in the experiment with UO-31 renal, > 100 µM.
